Assay results from a compilation of properties of binary mixtures (doi:10.1016/j.jct.2017.12.009).

Assay: xn = mol fraction of the nth substance listed
Details: 101 kPa

CO + CCCC[N+]1(C)CCCC1.O=S(=O)([O-])C(F)(F)F
x2 = 0
Details | speed of sound [m/s]
278.15 K | 1169
288.15 K | 1135

CCCC[N+]1(C)CCCC1.O=S(=O)([O-])C(F)(F)F + CO
speed of sound [m/s]
Details | 278.15 K | 288.15 K | 298.15 K | 308.15 K | 318.15 K
x1 = 0.0501 | 1228 | 1198 | 1168 | 1138 | 1110
x1 = 0.1004 | 1274 | – | – | 1190 | 1163
x1 = 0.1503 | 1311 | – | 1257 | 1231 | 1205
x1 = 0.2002 | – | 1316 | – | 1264 | 1239
x1 = 0.3002 | 1389 | 1363 | 1338 | 1313 | 1289
x1 = 0.3996 | 1421 | 1396 | 1371 | – | 1324
x1 = 0.4998 | 1445 | 1420 | 1396 | 1372 | 1349
x1 = 0.6006 | 1463 | 1439 | 1415 | – | 1368
x1 = 0.7015 | 1478 | 1453 | 1429 | 1406 | 1383
x1 = 0.8013 | 1490 | 1465 | – | 1418 | –
x1 = 0.8427 | 1495 | 1470 | 1446 | 1423 | 1400
x1 = 0.9008 | 1501 | 1476 | 1452 | 1429 | 1406
x1 = 0.9514 | – | 1480 | 1456 | 1433 | 1411
x1 = 1 | 1513 | – | 1461 | 1438 | 1415
